A short description of assay [1]: Ferric reducing/antioxidant power (FRAP assay). Format: biochemical. Details: key to FRAP: –: Very low activity. To be noted: means ± standard deviation; absorbance at 593 nm. The protocol:
The FRAP method was carried out according to previously described procedures with some modifications to be compatible with an assay on a 96-well microplate. All tests were done in triplicate, while the obtained results were averaged and reported as Fe^2+ equivalents (Fe^2+ µmol).
By using the FRAP assay, we investigated the reducing power of investigated systems, which was monitored by the corresponding changes in the absorbance at 593 nm. This method is based on the ability of systems to reduce the ferric tripyridyl triazine complex (TPTZ) to the ferrous state (Fe^2+), which can be seen by an intense blue color. […] Good reducing ability was shown by the trimethoxy substituted benzimidazole-2-carboxamide 14 bearing the amino group (1102.5 ± 14.1 mmolFe^2+/mmolC).

The test system of assay [2] is HEK 293 (human embryonic kidney cells). Put plainly: Cytotoxic activity on non-cancerous cells (MTT assay). Particulars: Homo sapiens, HEK293; non-tumor cell line; 72 h incubation, MTT; concentration that causes 50% growth inhibition. The assay is classed as cell-based. The protocol:
(§1) The experiments were performed on four human cell lines, including HCT 116 (colon carcinoma), H 460 (lung carcinoma), MCF-7 (breast carcinoma), and HEK 293 (human embryonic kidney cells), in line with previously published experimental procedures. Briefly, the cells were grown in DMEM medium with the addition of 10% fetal bovine serum (FBS), 2 mM L-glutamine, 100 U/mL penicillin, and 100 µg/mL streptomycin, and cultured as monolayers at 37 °C in a humidified atmosphere with 5% CO2. Cells were seeded at 2 × 10^3 cells/well in a standard 96-well microtiter plates and left to attach for 24 h. The next day, a test compound was added in five serial 10-fold dilutions. The rate of cell growth was evaluated after 72 h of incubation with MTT assays. The obtained results are expressed as IC50 values, calculated from the concentration-response curve using linear regression analysis by fitting the test concentrations that give PG values above and below the reference value (i.e., 50%). Each test was performed in quadruplicate in at least two individual experiments.

The test system of assay [3] is MCF-7 (breast carcinoma). Description: Antiproliferative activity in vitro (MTT assay). Format: cell-based, human. Particulars: 72 h incubation, concentration that causes 50% growth inhibition. The protocol:
as §1

Assay [4] concerns H 460 (lung carcinoma). Description: Antiproliferative activity in vitro (MTT assay). Format: cell-based, human. Particulars: 72 h incubation, concentration that causes 50% growth inhibition. The protocol: as §1
In assay [5] the test system is HCT 116 (colon carcinoma). Put plainly: Antiproliferative activity in vitro (MTT assay). Format: cell-based, human. To be noted: 72 h incubation, concentration that causes 50% growth inhibition, read-out: IC50 HCT116. The protocol:
as §1

Assay [6] is described as follows: DPPH free radical scavenging. Details: key to DPPH IC50: –: Very low activity. To be noted: after 30 min of incubation with 100 μM DPPH. Format: biochemical. The protocol:
The reducing activity of investigated systems was achieved by the DPPH method according to previously described procedures with modifications to assure the use in a 96-well microplate. Briefly, equal volumes of various concentrations of tested molecules (dissolved in DMSO) were added to the solution of DPPH (final concentration 50 µM in absolute ethanol). Ethanol and DMSO were used as control solutions in line with earlier reports.

Structures can show the parent of a compound that is named as a salt. Where two headings read alike, the source gives them in different places. Where only a bound is given, the exact number is not on record here.

In assay [1], `COc1ccccc1C(=O)Nc1nc2ccc([N+](=O)[O-])cc2[nH]1` [Compound 6, 2-methoxy-N-[5(6)-nitrobenzimidazol-2-yl]benzamide] registered an FRAP of 123.5 ± 2.8 mmolFe^2+/mmolC. Moreover, the 50% inhibitory concentration (IC50) in assay [2] amounted to 3 ± 0.6 µM; in assay [3] (Homo sapiens, MCF7, 72 h) it was 4 ± 0.3 µM; in assay [4] (Homo sapiens, NCI-H460, 72 h), 6 ± 5 µM; in assay [5] (Homo sapiens, HCT-116, 72 h), 6 ± 1 µM. The “DPPH IC50” value in assay [6] is “– ^c”.
`COc1ccc(C(=O)Nc2nc3ccc([N+](=O)[O-])cc3[nH]2)c(OC)c1` [Compound 7, 2,4-dimethoxy-N-[5(6)-nitrobenzimidazol-2-yl]benzamide] returned an FRAP in assay [1] of 139.6 ± 16.9 mmolFe^2+/mmolC. For the same compound, the half-inhibitory concentration (IC50) was 2 ± 0.3 µM in assay [2]; 2 ± 0.9 µM in assay [3] (Homo sapiens, MCF7, 72 h); 4 ± 2 µM in assay [4] (Homo sapiens, NCI-H460, 72 h); 3 ± 0.2 µM in assay [5] (Homo sapiens, HCT-116, 72 h). Moreover, the “DPPH IC50” value in assay [6] is listed as “–”.
Regarding `COc1ccccc1C(=O)Nc1nc2ccc([N+](=O)[O-])cc2s1` [Compound 9, 2-methoxy-N-(6-nitrobenzothiazol-2-yl)benzamide], the FRAP in assay [1] is on record as 6.7 ± 0.6 mmolFe^2+/mmolC. Besides, the IC50 in assay [3] (Homo sapiens, MCF7, 72 h) worked out at 9 ± 1 µM; in assay [4] (Homo sapiens, NCI-H460, 72 h), 46 ± 3 µM; in assay [5] (Homo sapiens, HCT-116, 72 h), 44 ± 25 µM. Besides, the “DPPH IC50” value in assay [6] is recorded as “–”.
Regarding `COc1ccc(C(=O)Nc2nc3ccc([N+](=O)[O-])cc3s2)c(OC)c1` [Compound 10, 2,4-dimethoxy-N-(6-nitrobenzothiazol-2-yl)benzamide], the FRAP result in assay [1] is given as “–”. Besides, the 50% inhibitory concentration (IC50) in assay [2] came out at 5 ± 1 µM; in assay [3] (Homo sapiens, MCF7, 72 h), 5 ± 2 µM; in assay [4] (Homo sapiens, NCI-H460, 72 h), 20 ± 3 µM; in assay [5] (Homo sapiens, HCT-116, 72 h), 9 ± 7 µM. Moreover, the “DPPH IC50” value in assay [6] was “–”.
Regarding `COc1cc(C(=O)Nc2nc3ccc([N+](=O)[O-])cc3s2)cc(OC)c1OC` [Compound 11, 3,4,5-trimethoxy-N-(6-nitrobenzothiazol-2-yl)benzamide], the FRAP in assay [1] is on record as 155.5 ± 3.0 mmolFe^2+/mmolC. The IC50 was 17 ± 9 µM in assay [3] (Homo sapiens, MCF7, 72 h); 23 ± 4 µM in assay [4] (Homo sapiens, NCI-H460, 72 h); 37 ± 0.8 µM in assay [5] (Homo sapiens, HCT-116, 72 h). Moreover, the “DPPH IC50” value in assay [6] is “–”.
`COc1ccccc1C(=O)Nc1nc2ccc(N)cc2[nH]1` [Compound 12, N-[5(6)-aminobenzimidazol-2-yl]-2-methoxybenzamide] returned an FRAP in assay [1] of 256.3 ± 2.8 mmolFe^2+/mmolC. Also, the 50% inhibitory concentration (IC50) in assay [3] was 53 ± 9 µM; in assay [4] (Homo sapiens, NCI-H460, 72 h) it was 39 ± 11 µM; in assay [5] (Homo sapiens, HCT-116, 72 h) it was 48 ± 4 µM; in assay [6] it was 28.9 ± 1.03 µM.
Consider `COc1ccc(C(=O)Nc2nc3ccc(N)cc3[nH]2)c(OC)c1` [Compound 13, N-[5(6)-aminobenzimidazol-2-yl]-2,4-dimethoxybenzamide], for which the FRAP in assay [1] is given as 238.4 ± 2.1 mmolFe^2+/mmolC. For the same compound, the half-inhibitory concentration (IC50) in assay [3] (Homo sapiens, MCF7, 72 h) came out at 20 ± 4 µM; in assay [4], 24 ± 8 µM; in assay [5], 17 ± 8 µM; in assay [6], 17.7 ± 2.81 µM.
As for `COc1ccccc1C(=O)Nc1nc2ccc(N)cc2s1` [Compound 15, N-(6-aminobenzothiazol-2-yl)-2-methoxybenzamide], the FRAP in assay [1] came out at 163.4 ± 4.7 mmolFe^2+/mmolC. Further, the IC50 in assay [3] (Homo sapiens, MCF7, 72 h) turned out to be 3 ± 2 µM; in assay [4] (Homo sapiens, NCI-H460, 72 h), 3 ± 0.9 µM; in assay [5] (Homo sapiens, HCT-116, 72 h), 6 ± 4 µM. Further, the “DPPH IC50” value in assay [6] was “–”.
`COc1ccc(C(=O)Nc2nc3ccc(N)cc3s2)c(OC)c1` [Compound 16, N-(6-aminobenzothiazol-2-yl)-2,4-dimethoxybenzamide] had an FRAP in assay [1] of 203.6 ± 5.8 mmolFe^2+/mmolC. The IC50 stood at 11 ± 8 µM in assay [2]; 5 ± 0.3 µM in assay [3] (Homo sapiens, MCF7, 72 h); 43 ± 29 µM in assay [4] (Homo sapiens, NCI-H460, 72 h); 6 ± 1 µM in assay [5] (Homo sapiens, HCT-116, 72 h). Also, the “DPPH IC50” value in assay [6] is “–”.
With `COc1cc(C(=O)Nc2nc3ccc(N)cc3s2)cc(OC)c1OC` [Compound 17, N-(6-aminobenzothiazol-2-yl)-3,4,5-trimethoxybenzamide], the FRAP in assay [1] is listed as 235.4 ± 2.8 mmolFe^2+/mmolC. The IC50 is 5 ± 3 µM in assay [3]; ≥ 100 µM in assay [4]; 28 ± 4 µM in assay [5] (Homo sapiens, HCT-116, 72 h); 40.4 ± 0.4 µM in assay [6].
`COc1ccccc1C(=O)Nc1nc2ccc(N)cc2[nH]1` [Compound 18, N-[5(6)-aminobenzimidazol-2-yl]-2-methoxybenzamide hydrochloride]: in assay [1], the FRAP is given as 267.2 ± 5.0 mmolFe^2+/mmolC. For the same compound, the IC50 in assay [3] was found to be 23 ± 2 µM; in assay [4], 36 ± 8 µM; in assay [5] it was 33 ± 7 µM; in assay [6], 9.85 ± 0.003 µM.
Take `COc1ccc(C(=O)Nc2nc3ccc(N)cc3[nH]2)c(OC)c1` [Compound 19, N-[5(6)-aminobenzimidazol-2-yl]-2,4-dimethoxybenzamide hydrochloride]: the FRAP in assay [1] came to 259.1 ± 0.6 mmolFe^2+/mmolC. Besides, the concentration for half-maximal inhibition (IC50) in assay [3] was 34 ± 24 µM; in assay [4] it was > 100 µM; in assay [5], ≥ 100 µM; in assay [6] it was 13.3 ± 0.8 µM.
For the compound `COc1cc(C(=O)Nc2nc3cc(N)ccc3[nH]2)cc(OC)c1OC.Cl` [Compound 20, N-(6-aminobenzimidazol-2-yl)-3,4,5-trimethoxybenzamide hydrochloride], the FRAP in assay [1] worked out at 267.4 ± 1.4 mmolFe^2+/mmolC. The IC50 in assay [3] (Homo sapiens, MCF7, 72 h) is 34 ± 30 µM; in assay [4] (Homo sapiens, NCI-H460, 72 h), > 100 µM; in assay [5] (Homo sapiens, HCT-116, 72 h), ≥ 100 µM; in assay [6] it was 8.06 ± 0.03 µM.
With `COc1cc(C(=O)Nc2nc3ccc(N)cc3s2)cc(OC)c1OC.Cl` [Compound 23, N-(6-aminobenzothiazol-2-yl)-3,4,5-trimethoxybenzamide hydrochloride], the FRAP in assay [1] was determined as 241.3 ± 1.6 mmolFe^2+/mmolC. Further, the concentration for half-maximal inhibition (IC50) was determined as 34 ± 9 µM in assay [4], 50 ± 11 µM in assay [5] and 1.5 ± 0.5 µM in assay [6].
Turning to `O=C(Nc1nc2ccc([N+](=O)[O-])cc2[nH]1)c1ccccc1O` [Compound 24, 2-hydroxy-N-[5(6)-nitrobenzimidazol-2-yl]benzamide], the FRAP in assay [1] was 39.1 ± 2.0 mmolFe^2+/mmolC. In addition, the half-maximal inhibitory concentration (IC50) in assay [3] (Homo sapiens, MCF7, 72 h) is 42 ± 7 µM; in assay [4] (Homo sapiens, NCI-H460, 72 h) it was 42 ± 20 µM; in assay [5] (Homo sapiens, HCT-116, 72 h) it was 61 ± 0.1 µM. Besides, in assay [6], the “DPPH IC50” value is “–”.
Regarding `COc1ccc(C(=O)Nc2nc3ccc([N+](=O)[O-])cc3[nH]2)c(O)c1` [Compound 25, 2-hydroxy-4-methoxy-N-[5(6)-nitrobenzimidazol-2-yl]benzamide], the FRAP in assay [1] was 150.4 ± 3.4 mmolFe^2+/mmolC. Moreover, the half-maximal inhibitory concentration (IC50) amounted to 28 ± 6 µM in assay [3] (Homo sapiens, MCF7, 72 h); 18 ± 0.01 µM in assay [4] (Homo sapiens, NCI-H460, 72 h); 31 ± 4 µM in assay [5] (Homo sapiens, HCT-116, 72 h). In addition, the “DPPH IC50” value in assay [6] was “–”.
`Nc1ccc2nc(NC(=O)c3ccccc3O)[nH]c2c1` [Compound 30, N-[5(6)-aminobenzimidazol-2-yl]-2-hydroxybenzamide]: in assay [1], the FRAP turned out to be 272.6 ± 7.1 mmolFe^2+/mmolC. Moreover, the half-inhibitory concentration (IC50) in assay [3] (Homo sapiens, MCF7, 72 h) is 30 ± 0.8 µM; in assay [4] (Homo sapiens, NCI-H460, 72 h), > 100 µM; in assay [5] (Homo sapiens, HCT-116, 72 h), 46 ± 0.2 µM; in assay [6], 42.5 ± 0.5 µM.
The corresponding values for `COc1ccc(C(=O)Nc2nc3ccc(N)cc3[nH]2)c(O)c1` [Compound 31, N-[5(6)-aminobenzimidazol-2-yl]-2-hydroxy-4-methoxybenzamide] are 258.4 ± 6.4 mmolFe^2+/mmolC, ≥ 100 µM, 75 ± 27 µM, 37 ± 7 µM and 9.2 ± 0.6 µM.
In assay [1], `COc1ccc(C(=O)Nc2nc3ccc(N)cc3[nH]2)c(O)c1` [Compound 32, N-[5(6)-aminobenzimidazol-2-yl]-2-hydroxy-4-methoxybenzamide] yielded an FRAP of 304.3 ± 6.4 mmolFe^2+/mmolC. Besides, the IC50 in assay [3] was 80 ± 4 µM; in assay [4], ≥ 100 µM; in assay [5] it was 50 ± 13 µM; in assay [6] it was 29.5 ± 0.1 µM.
For the compound `COc1cc([C@@H]2c3cc4c(cc3[C@@H](O[C@@H]3O[C@@H]5CO[C@@H](C)O[C@H]5[C@H](O)[C@H]3O)[C@H]3COC(=O)[C@H]23)OCO4)cc(OC)c1O` [Etoposide, reference compound], the half-inhibitory concentration (IC50) in assay [2] came to 1.6 ± 0.4 µM; in assay [3] (Homo sapiens, MCF7, 72 h), 1 ± 0.7 µM; in assay [4] (Homo sapiens, NCI-H460, 72 h) it was 0.1 ± 0.04 µM; in assay [5] (Homo sapiens, HCT-116, 72 h), 5 ± 2 µM.

(Values after publication PMC6826492, “Experimental and Computational Study of the Antioxidative Potential of Novel Nitro and Amino Substituted Benzimidazole/Benzothiazole-2-Carboxamides with Antiproliferative Activity” (Antioxidants, 2019).)
